One experiment addresses T1, TK2 (Homo sapiens, UniProt O00142).
T1 sequence (O00142 34-265): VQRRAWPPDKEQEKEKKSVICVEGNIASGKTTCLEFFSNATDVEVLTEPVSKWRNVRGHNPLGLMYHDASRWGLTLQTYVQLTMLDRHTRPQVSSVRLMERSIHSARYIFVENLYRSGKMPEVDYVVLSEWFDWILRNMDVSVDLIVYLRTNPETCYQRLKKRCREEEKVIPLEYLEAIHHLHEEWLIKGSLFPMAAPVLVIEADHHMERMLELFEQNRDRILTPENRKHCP
More on the design: unit not given here. As to conditions: substrate activity; literature (Johansson et al.; Eriksson et al.; Wang et al.), source per Table 3; cited from earlier work.

Experiment [1] has as its target deoxycytidine kinase (dCK) (Homo sapiens, UniProt P27707). Conditions: cited from earlier work; for dCK: substrate activity, literature (Johansson et al.; Eriksson et al.; Wang et al.), source per Table 3.
In the next experiment the test system is tubulin. The experiment is described as follows: Fluorescence-based microtubule polymerization assay (MPA). Format: biochemical. Conditions: mean percentage of paclitaxel or vinblastine activity; 0.75-10 micromolar. An excerpt:
Drug-linker constructs may further be screened using functional assays predictive of biological activity. […] Tubulin assembly or inhibition thereof may be monitored by fluorescence using the CytoDYNAMIX Screen™ 10 kit available from Cytoskeleton (1830 S. Acoma St., Denver, Colo.). […] Emission is monitored at 405 nm with excitation at 360 nm. […] Tubulin assembly or inhibition may also be monitored by light scattering which is approximated by the apparent absorption at 350 nm. For paclitaxel drug conjugates BSA is employed to prevent aggregation and glycerol, which is a tubulin polymerization enhancer, is omitted from the kit to increase the signal to noise ratio.
The assay kit (#BK011) was purchased from Cytoskeleton (Denver, Colo.). The assays were carried out according to the manufacturer's instructions, except that 1 mg/ml BSA (Sigma #A3059) was included in all assays. […] Parent drugs and conjugates were tested at 0.75, 1.5, 3 and 10 micromolar final concentration and results represent a comparison of conjugate and parent drug curves obtained from the linear range of the dose responses.

Sequence of deoxycytidine kinase (dCK) (P27707 whole entry, species assumed): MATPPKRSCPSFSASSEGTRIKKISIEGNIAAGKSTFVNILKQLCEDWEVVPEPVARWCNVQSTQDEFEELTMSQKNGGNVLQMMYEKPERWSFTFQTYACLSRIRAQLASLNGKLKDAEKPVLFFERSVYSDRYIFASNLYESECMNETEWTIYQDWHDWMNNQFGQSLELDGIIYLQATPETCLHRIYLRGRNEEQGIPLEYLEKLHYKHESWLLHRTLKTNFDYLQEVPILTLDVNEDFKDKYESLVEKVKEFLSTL

For the compound `CC#Cc1cn([C@@H]2O[C@H](CO)[C@@H](O)[C@@H]2O)c(=O)[nH]c1=O`, the TK2 on TK2 is on record as 30.
For the compound `C[C@H]1C=C[C@@H](CO)O1`, the TK2 at TK2 was less than 1. In addition, the dCK in experiment [1] is 4.
In the case of `Nc1nc(Cl)nc2c1ncn2C1CC(CO)C(CO)O1` (stereo not drawn), the dCK in experiment [1] is on record as 40.
For the compound “4-deacetyl-3-de-(methoxycarbonyl)-vinblastin-3-yl-N-{N′-Boc-2-[2-[2-[2-ethoxy]ethoxy]ethoxy]ethylamino}-aminocarbonyl) [VBL-3Am-PEG(11)-NH(B)]”, the “Ave. MPA Act” value in the experiment on tubulin is on record as “B (B=60-100)”.
As for `CC[C@]1(O)C[C@@H]2CN(CCc3c([nH]c4ccccc34)[C@@](C(=O)OC)(c3cc4c(cc3OC)N(C)[C@H]3[C@@](O)(C(=O)OC)[C@H](O)[C@]5(CC)C=CCN6CC[C@]43[C@@H]65)C2)C1` [Desacetyl vinblastine], the “Ave. MPA Act” value in the experiment on tubulin is “C (C>100)”.
In the case of `CC[C@]1(O)C[C@@H]2CN(CCc3c([nH]c4ccccc34)[C@@](C(=O)OC)(c3cc4c(cc3OC)N(C)[C@H]3[C@@](O)(C(=O)NN)[C@H](O)[C@]5(CC)C=CCN6CC[C@]43[C@@H]65)C2)C1` [Desacetylvinblastine monohydrazine], in the experiment with tubulin, the “Ave. MPA Act” value is reported as “C (C>100)”.
`C=CCOC(=O)O[C@@H](C(=O)O[C@H]1C[C@@]2(O)[C@@H](OC(=O)c3ccccc3)[C@@H]3[C@]4(OC(C)=O)CO[C@@H]4C[C@H](O)[C@@]3(C)C(=O)[C@H](OC(C)=O)C(=C1C)C2(C)C)[C@@H](NC(=O)c1ccccc1)c1ccccc1` [PXL-2′Alloc]: in the experiment on tubulin, the “Ave. MPA Act” value is given as “A (A<60)”.
`CC(=O)O[C@H]1C(=O)[C@]2(C)[C@@H](OC(=O)NCCCCCCn3c(=O)c(C)cn([C@H]4C[C@H](O)[C@@H](COP(=O)(O)O)O4)c3=O)C[C@H]3OC[C@@]3(OC(C)=O)[C@H]2[C@H](OC(=O)c2ccccc2)[C@]2(O)C[C@H](OC(=O)[C@H](O)[C@@H](NC(=O)c3ccccc3)c3ccccc3)C(C)=C1C2(C)C` [PXL-7Ca-ALK(6)-N3-PhTHY]: the “Ave. MPA Act” value in the experiment with tubulin is given as “B (B=60-100)”.
`CC(=O)O[C@H]1C(=O)[C@]2(C)[C@@H](OC(=O)NCCCCCCn3c(=O)c(C)cn([C@@H]4C[C@H](O)[C@@H](CO)O4)c3=O)C[C@H]3OC[C@@]3(OC(C)=O)[C@H]2[C@H](OC(=O)c2ccccc2)[C@]2(O)C[C@H](OC(=O)[C@H](O)[C@@H](NC(=O)c3ccccc3)c3ccccc3)C(C)=C1C2(C)C` [PXL-7Ca-ALK(6)-N3-αTHY]: in the experiment on tubulin, the “Ave. MPA Act” value was “B (B=60-100)”.
In the case of `CC(=O)O[C@H]1C(=O)[C@]2(C)[C@@H](OC(=O)NCCCCCCN)C[C@H]3OC[C@@]3(OC(C)=O)[C@H]2[C@H](OC(=O)c2ccccc2)[C@]2(O)C[C@H](OC(=O)[C@H](O)[C@@H](NC(=O)c3ccccc3)c3ccccc3)C(C)=C1C2(C)C` [PXL-7Ca-ALK(6)-NH2], in the experiment with tubulin, the “Ave. MPA Act” value is listed as “A (A<60)”.
As to `CC(=O)O[C@H]1C(=O)[C@]2(C)[C@@H](OC(=O)CCCCCN)C[C@H]3OC[C@@]3(OC(C)=O)[C@H]2[C@H](OC(=O)c2ccccc2)[C@]2(O)C[C@H](OC(=O)[C@H](O)[C@@H](NC(=O)c3ccccc3)c3ccccc3)C(C)=C1C2(C)C` [PXL-7Es-ALK(5)-NH2], the “Ave. MPA Act” value with tubulin was “A (A<60)”.
As for `CC(=O)O[C@@]12CO[C@@H]1C[C@H](O)[C@@]1(C)C(=O)[C@H](OC(=O)CCCCCN)C3=C(C)[C@@H](OC(=O)[C@H](O)[C@@H](NC(=O)c4ccccc4)c4ccccc4)C[C@@](O)([C@@H](OC(=O)c4ccccc4)[C@H]21)C3(C)C` [PXL-10Es-ALK(5)-NH2], the “Ave. MPA Act” value in the experiment on tubulin is given as “B (B=60-100)”.
For `CC(=O)O[C@@]12CO[C@@H]1C[C@H](O)[C@@]1(C)C(=O)[C@H](OC(=O)CCCCCCNC(=O)OCc3ccccc3)C3=C(C)[C@@H](OC(=O)[C@H](O)[C@@H](NC(=O)c4ccccc4)c4ccccc4)C[C@@](O)([C@@H](OC(=O)c4ccccc4)[C@H]21)C3(C)C` [PXL-10Es-Alk(6)-NH(Z)], the “Ave. MPA Act” value with tubulin is “A (A<60)”.
With `Nc1nc(=O)n([C@H]2C[C@H](O)[C@@H](CO)O2)cc1-c1ccco1` [R2 = 2-furyl, X = C], the TK2 on TK2 is 10. Besides, the dCK in experiment [1] was 3.
Take `Nc1nc(=O)n([C@H]2C[C@H](O)[C@@H](CO)O2)cc1-c1ccccn1` [R2 = 2-pyridyl, X = C]: the TK2 on TK2 is on record as 7. Moreover, in experiment [1], the dCK is recorded as less than 1.
`O=c1[nH]c(=O)n([C@@H]2O[C@H](CO)[C@@H](O)[C@@H]2O)cc1-c1cccs1` [R2 = 2-thienyl, R5 = OH]: on TK2, the TK2 was 6.
For `Nc1nc(=O)n([C@H]2C[C@H](O)[C@@H](CO)O2)cc1-c1cccs1` [R2 = 2-thienyl, X = C], the TK2 on TK2 is on record as 30. In experiment [1], the dCK is reported as 2.
`Nc1nc(=O)n([C@H]2C[C@H](O)[C@@H](CO)O2)cc1-c1ccoc1` [R2 = 3-furyl, X = C]: on TK2, the TK2 was 50. In experiment [1], the dCK is less than 1.
With `Nc1nc(=O)n([C@H]2C[C@H](O)[C@@H](CO)O2)cc1-c1cccnc1` [R2 = 3-pyridyl, X = C], the TK2 at TK2 was less than 1. Further, the dCK in experiment [1] is recorded as 4.
With `Nc1nc(=O)n([C@H]2C[C@H](O)[C@@H](CO)O2)cc1-c1ccsc1` [R2 = 3-thienyl, X = C], the TK2 on TK2 was 30. The dCK in experiment [1] is listed as less than 1.
On to `Nc1nc(=O)n([C@H]2C[C@H](O)[C@@H](CO)O2)cc1-c1ccncc1` [R2 = 4-pyridyl, X = C], for which the TK2 on TK2 was 2. For the same compound, in experiment [1], the dCK was 5.
Regarding `Nc1nc(=O)n([C@H]2C[C@H](O)[C@@H](CO)O2)cc1Br` [R2 = Br, X = C], the TK2 on TK2 was 40. In experiment [1], the dCK is 20.
For `Cc1cn([C@@H]2O[C@H](CO)[C@@H](O)[C@@H]2O)c(=O)[nH]c1=O` [R2 = CH3, R5 = OH (araT), araT], at TK2, the TK2 is 60.
For the compound `Cc1cn([C@H]2C[C@H](O)[C@@H](CO)O2)c(=O)nc1N` [R2 = CH3, X = C], the TK2 on TK2 is 40.
As for `Nc1nc(=O)n([C@H]2C[C@H](O)[C@@H](CO)O2)cc1F` [R2 = F, X = C], the TK2 on TK2 is 90. Further, in experiment [1], the dCK is 20.
`O=c1ccn([C@@H]2O[C@H](CO)[C@@H](O)[C@H]2O)c(=O)[nH]1` [R2 = H, R5 = OH (araU), araU]: the TK2 on TK2 is on record as 20.
Take `Nc1cn([C@@H]2O[C@H](CO)[C@@H](O)[C@H]2O)c(=O)[nH]c1=O` [R2 = NH2, R4 = H, R3 = OH, 5-amino-uridine]: the “activity towards dCK” value in experiment [1] was 17%.
Turning to `O=c1[nH]c(=O)n([C@@H]2O[C@H](CO)[C@@H](O)[C@@H]2O)cc1C1CC1` [R2 = cyclopropyl, R5 = OH], at TK2, the TK2 is recorded as 15.
Regarding `Nc1nc(=O)n([C@H]2C[C@H](O)[C@@H](CO)O2)cc1C1CC1` [R2 = cyclopropyl, X = C], the TK2 on TK2 is less than 1. For the same compound, the dCK in experiment [1] is 20.
For the compound `Nc1ccn([C@@H]2O[C@H](CO)[C@@H](O)[C@H]2F)c(=O)n1` [R4 = F, R5 = H, R3 = OH], the TK2 on TK2 is 30. In addition, the dCK in experiment [1] was 300.
As for `Nc1ccn([C@H]2C[C@H](F)[C@@H](CO)O2)c(=O)n1` [R4 = H, R5 = H, R3 = F], the TK2 on TK2 is less than 1. The dCK in experiment [1] is 60.
`Nc1ccn([C@H]2CC[C@@H](CO)O2)c(=O)n1` [R4 = H, R5 = H, R3 = H (ddCy, Zalcitabine)]: at TK2, the TK2 is listed as less than 1. In addition, the dCK in experiment [1] is given as 30.
On to `Nc1ccn([C@@H]2O[C@H](CO)[C@@H](O)[C@H]2O)c(=O)n1` [R4 = OH, R5 = H, R3 = OH], for which, at TK2, the TK2 is less than 1.
Consider `CC[C@]1(O)C[C@@H]2CN(CCc3c([nH]c4ccccc34)[C@@](C(=O)OC)(c3cc4c(cc3OC)N(C)[C@H]3[C@@](O)(C(=O)NCCCCCCn5c(=O)c(C)cn([C@H]6C[C@H](O)[C@@H](COP(=O)(O)O)O6)c5=O)[C@H](O)[C@]5(CC)C=CCN6CC[C@]43[C@@H]65)C2)C1` [VBL-3Am-ALK(6)-N3-PhTHY], for which, in the experiment on tubulin, the “Ave. MPA Act” value is recorded as “C (C>100)”.
Regarding `Cc1cn([C@@H]2C[C@H](O)[C@@H](CO)O2)c(=O)[nH]c1=O` [α-D-Thy], the TK2 at TK2 is recorded as 2.4.
With `Nc1ccn([C@@H]2C[C@H](O)[C@@H](CO)O2)c(=O)n1` [α-D-dC], the TK2 at TK2 is 1.8.
On to `Cc1cn([C@H]2C[C@@H](O)[C@H](CO)O2)c(=O)[nH]c1=O` [α-L-Thy], for which, on TK2, the TK2 is given as 1.5.
Turning to `Nc1ccn(C2CC(O)C(CO)O2)c(=O)n1` [α-L-dC], the TK2 at TK2 is 0.4.
`Cc1cn(C2CCC(CO)O2)c(=O)[nH]c1=O` (stereo not drawn) [α-ddT]: the TK2 on TK2 is listed as 9.8.
Take `Cc1cn([C@@H]2C[C@@H](O)[C@H](CO)O2)c(=O)[nH]c1=O` [β-L-Thy]: at TK2, the TK2 is on record as 60. Moreover, in experiment [1], the dCK is 0.8.
For `Nc1ccn([C@@H]2C[C@@H](O)[C@H](CO)O2)c(=O)n1` [β-L-dC], at TK2, the TK2 was 70.
Consider `Nc1ccn([C@H]2CC[C@@H](CO)O2)c(=O)n1` [β-ddC(2′,3′-dideoxyC), 2′,3′-dideoxyC], for which the dCK in experiment [1] is recorded as 7.1.
In the case of `Cc1cn([C@H]2CC[C@@H](CO)O2)c(=O)[nH]c1=O` [β-ddT(3′-deoxyThy), 3′-deoxyThy], on TK2, the TK2 is 3.2.
Turning to (±)-Cytallene, the TK2 at TK2 is less than 1. The dCK in experiment [1] is 20.

Values taken from patent publication US20050148534A1, “Small molecule compositions and methods for increasing drug efficiency using compositions thereof” (priority 2003, published 2005).
